Patent US20130078203A1, “CAROTENOID SUNSCREEN” (Promar AS, priority 2010, published 2013)
Several values for one entry are separate records, joined by “and”; a condition that tells them apart may be missing. Identical values can stand only once. Like-named read-outs stand apart in the source and are kept apart here.

Legend:
[1] = In vitro skin model irradiation absorption (integrating sphere transmission spectra, Vitro-skin); assay type: physicochemical; settings: for effect of prolonged contact with the skin model on absorption: 10, 15 or 20 minutes on Vitro-skin; for effect of prolonged contact with the skin model on absorption / absorption in the 375-490 nm range: FIGS. 7A-C; for absorption in the 375-490 nm range: Vitro-skin skin model
Procedure: The in vitro method of Springsteen was used (Springsteen et al., 1999, Analytica Chimica Acta, 380, p 155-164). Vitro-skin was used as the skin simulator and Miglyol (Miglyol 812F Neutraloel CHG.040906) or ethyl lactate (Sigma Aldrich) was used as the solvent. The tests were performed with a Varian Cary 300 Conc UV-Visible Spectrophotometer (with an integrating sphere). Sarcinaxanthin (prepared as described in Example 2) and the other carotenoids (Sigma Aldrich) were tested at various concentrations and immediately on application to the skin model or 10-20 minutes post-application.
FIGS. 7A-C show the irradiation absorption achieved by β-carotene (A), sarcinaxanthin (B) and zeaxanthin (C) at the concentrations indicated. The presented graphs also show the effects of the diluent on sarcinaxanthin absorption (FIG. 7B) and the effect of prolonged contact with the skin at 10, 15 or 20 minutes as indicated on the Figures. The results were compared to a conventional SPF 60 sun lotion and the use of diluent alone.

[2] = UV/VIS absorption maxima by HPLC with diode array detector; assay type: physicochemical; settings: carotenoids dissolved in MeOH, HPLC on Zorbax C18 column
Procedure: LC-MS analyses were performed on an Agilent Ion Trap SL mass spectrometer equipped with an Agilent 1100 series HPLC system. The HPLC system was equipped with a diode array detector (DAD) which recorded UV/VIS spectra in the range from 200-650 nm. Two HPLC protocols were used for the analysis in this work. A high throughput protocol for a fast quantitative determination of known carotenoids was used as follows; the carotenoids were eluted isocratically in MeOH for 5 min. A Zorbax rapid resolution SB RP C18 column with dimension 2.1*30 mm was used for the analyses. Column flow was kept at 0.4 mL/min and 10 μL extract was injected for each run. For detailed qualitative carotenoid separation a Zorbax SB RP C18 with dimension 2.1*150 mm was used. The carotenoids were eluted isocratically in MeOH/Acetonitrile (7:3) for 25 minutes. The column flow was 250 μl/min and 10 or 20 μL sample was injected depending on the concentration.

[3] = side-by-side comparison, ethyl lactate as diluent, immediately vs after 15 minutes, FIGS. 8A and B

Row | effect of prolonged contact with the skin model on absorption [1] | λmax (nm) in the HPLC eluent [2] | Compound | absorption in the 375-490 nm range [1] | stability of absorption after 15 minutes on the skin model [1, 3] | stability of absorption after 15 minutes on the skin model [1]
1 | loss of absorption | – | CC1=C(/C=C/C(C)=C/C=C/C(C)=C/C=C/C=C(C)/C=C/C=C(C)/C=C/C2=C(C)CCCC2(C)C)C(C)(C)CCC1 [β-carotene] | only modest absorption | unstable and lose most of their absorption properties in the relevant range | –
2 | loss of absorption | – | CC1=C(/C=C/C(C)=C/C=C/C(C)=C/C=C/C=C(C)/C=C/C=C(C)/C=C/C2=C(C)C[C@@H](O)CC2(C)C)C(C)(C)C[C@H](O)C1 [zeaxanthin] | only modest absorption | – | unstable and lose most of their absorption properties in the relevant range
3 | – | 414 nm and 438 nm and 467 nm | CC1=CCC(C/C=C(\C)CO)C(C)(C)C1/C=C/C(C)=C/C=C/C(C)=C/C=C/C=C(C)/C=C/C=C(C)/C=C/C1C(C)=CCC(C/C=C(\C)CO)C1(C)C (stereo not shown) [Decaprenoxanthin] | – | – | –
4 | – | 414 nm and 438 nm and 467 nm | C=C1CC[C@H](C/C=C(\C)CO)C(C)(C)[C@@H]1/C=C/C(C)=C/C=C/C(C)=C/C=C/C=C(C)/C=C/C=C(C)/C=C/[C@@H]1C(=C)CC[C@H](C/C=C(\C)CO)C1(C)C [sarcinaxanthin] | strong absorption | absorption appears unaffected by the prolonged contact | –
5 | – | 414 nm and 438 nm and 467 nm | C=C1CC[C@H](C/C=C(\C)CO)C(C)(C)[C@@H]1/C=C/C(C)=C/C=C/C(C)=C/C=C/C=C(C)/C=C/C=C(C)/C=C/[C@@H]1C(=C)CC[C@H](C/C=C(\C)CO[C@@H]2O[C@H](CO)[C@@H](O)[C@H](O)[C@H]2O)C1(C)C [Sarcinaxanthin monoglucoside] | – | – | –
6 | – | 414 nm and 438 nm and 467 nm | C=C1CCC(C/C=C(\C)CO[C@@H]2O[C@H](CO)[C@@H](O)[C@H](O)[C@H]2O)C(C)(C)C1/C=C/C(C)=C/C=C/C(C)=C/C=C/C=C(C)/C=C/C=C(C)/C=C/C1C(=C)CCC(C/C=C(\C)CO[C@@H]2O[C@H](CO)[C@@H](O)[C@H](O)[C@H]2O)C1(C)C (stereo partly shown) [Sarcinaxanthin diglucoside] | – | – | –
7 | – | 445 nm and 470 nm and 501 nm | Lycopene | – | – | –
